{"source": "paper PMC8248988", "about": "“A signal capture and proofreading mechanism for the KDEL-receptor explains selectivity and dynamic range in ER retrieval” (eLife, 2021)", "key": {"human KDELR1": {"target": "T1, human KDELR1 (Homo sapiens, UniProt P24390)", "T1 construct": "expressed in transfected cells; host or cells: COS-7", "assay": "ER retrieval assay, WT KDELR1-GFP", "type": "cell-based", "settings": "COS-7 cells, WT human KDEL receptor-GFP with mScarlet ligand", "from_the_text": "(§1) To create KDELR1-GFP and KDELR2-GFP, the reading frames for Homo sapiens KDELR1 (Uniprot: P24390) and KDELR2 (Uniprot: P33947) were cloned into the pEF5/FRT low level mammalian expression vector with a C-terminal 20 amino acid linker made up of 5 copies of Gly-Ser-Ser-Ser followed by GFP. Specific point mutations were introduced using the Quickchange protocol (Stratagene) and are described in the key resources table and figures. To create the mScarlet-KDEL^sec ligand construct, mScarlet with an N-terminal hGH signal peptide and the 16 C-terminal residues of human BiP at its C-terminus, containing the KDEL signal, was cloned into the pcDNA3.1 vector. […] The Golgi marker protein TGN46 was detected by antibody (sheep anti-TGN46 AHP500G; AbD Serotec) and an Alexa 647 conjugated secondary anti-sheep secondary (A-21448, Invitrogen). In Figure 1d and e, endogenous KDELR was detected by antibody (mouse anti-KDELR ADI-VAA-PT048; Enzo Life Sciences) and Alexa 488 conjugated anti-mouse secondary antibody (A-21202, Invitrogen). For retrieval assays in other figures, KDELR-GFP fusion proteins were directly detected by fluorescence. The mScarlet-xDEL fusion proteins were directly detected by fluorescence. […] The fraction of KDEL receptor in the Golgi apparatus was calculated by dividing the Golgi signal by the total cell signal. […]"}, "human KDELR1 E117Q": {"target": "T2, human KDELR1 E117Q (Homo sapiens, UniProt P24390, E117Q)", "T2 construct": "expressed in transfected cells; host or cells: COS-7", "T2 sequence (P24390 whole entry E117Q)": "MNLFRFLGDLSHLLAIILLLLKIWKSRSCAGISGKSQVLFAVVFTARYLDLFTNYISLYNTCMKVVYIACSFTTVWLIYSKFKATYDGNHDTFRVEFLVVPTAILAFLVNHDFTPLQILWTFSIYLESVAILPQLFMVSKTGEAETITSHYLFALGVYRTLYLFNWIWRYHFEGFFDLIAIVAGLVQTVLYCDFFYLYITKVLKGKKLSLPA", "assay": "ER retrieval assay, KDELR1 E117Q-GFP", "type": "cell-based", "settings": "COS-7 cells", "from_the_text": "as §1"}}}
{"substance": "ADEL [pcDNA3.1 hGHss-mScarlet-H. sapiens BiP639-654K651A (ADEL^SEC), secreted mScarlet fusion with human BiP C-terminus, ADEL signal]", "values": [{"measurement": "ligand-induced receptor retrieval to the ER (in words)", "setting": "human KDELR1", "result": "does not activate"}, {"measurement": "ligand-induced receptor retrieval to the ER (in words)", "setting": "human KDELR1 E117Q", "result": "move to the ER"}]}
